Data as given in ChEMBL document CHEMBL4152186, “Recent advances in the search for novel 5-lipoxygenase inhibitors for the treatment of asthma” (Eur J Med Chem, 2018).

Columns and labels:
[1] = molecular target: T1, Polyunsaturated fatty acid 5-lipoxygenase (Homo sapiens, UniProt P09917); test: Inhibition of 5-LOX (unknown origin)
T1 sequence (P09917 whole entry): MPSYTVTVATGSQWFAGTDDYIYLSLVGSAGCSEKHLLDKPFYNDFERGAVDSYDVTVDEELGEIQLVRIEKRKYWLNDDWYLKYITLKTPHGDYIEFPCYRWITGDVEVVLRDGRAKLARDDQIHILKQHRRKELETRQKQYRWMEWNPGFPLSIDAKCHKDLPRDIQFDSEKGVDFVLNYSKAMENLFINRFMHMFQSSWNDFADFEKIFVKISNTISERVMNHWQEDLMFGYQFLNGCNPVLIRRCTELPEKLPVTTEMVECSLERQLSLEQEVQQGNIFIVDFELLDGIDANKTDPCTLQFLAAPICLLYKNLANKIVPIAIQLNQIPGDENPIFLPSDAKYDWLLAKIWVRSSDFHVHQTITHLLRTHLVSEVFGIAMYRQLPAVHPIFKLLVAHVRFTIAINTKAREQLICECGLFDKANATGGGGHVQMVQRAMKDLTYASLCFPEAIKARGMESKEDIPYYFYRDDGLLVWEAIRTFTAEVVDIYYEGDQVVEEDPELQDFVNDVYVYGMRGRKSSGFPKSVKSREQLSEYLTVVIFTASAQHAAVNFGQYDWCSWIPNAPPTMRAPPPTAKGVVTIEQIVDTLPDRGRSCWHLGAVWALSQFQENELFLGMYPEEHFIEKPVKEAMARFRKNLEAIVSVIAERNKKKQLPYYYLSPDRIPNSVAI

[2] = molecular target: T2, Prostaglandin G/H synthase 2 (Homo sapiens, UniProt P35354); test: Inhibition of COX2 (unknown origin)
T2 sequence (P35354 whole entry): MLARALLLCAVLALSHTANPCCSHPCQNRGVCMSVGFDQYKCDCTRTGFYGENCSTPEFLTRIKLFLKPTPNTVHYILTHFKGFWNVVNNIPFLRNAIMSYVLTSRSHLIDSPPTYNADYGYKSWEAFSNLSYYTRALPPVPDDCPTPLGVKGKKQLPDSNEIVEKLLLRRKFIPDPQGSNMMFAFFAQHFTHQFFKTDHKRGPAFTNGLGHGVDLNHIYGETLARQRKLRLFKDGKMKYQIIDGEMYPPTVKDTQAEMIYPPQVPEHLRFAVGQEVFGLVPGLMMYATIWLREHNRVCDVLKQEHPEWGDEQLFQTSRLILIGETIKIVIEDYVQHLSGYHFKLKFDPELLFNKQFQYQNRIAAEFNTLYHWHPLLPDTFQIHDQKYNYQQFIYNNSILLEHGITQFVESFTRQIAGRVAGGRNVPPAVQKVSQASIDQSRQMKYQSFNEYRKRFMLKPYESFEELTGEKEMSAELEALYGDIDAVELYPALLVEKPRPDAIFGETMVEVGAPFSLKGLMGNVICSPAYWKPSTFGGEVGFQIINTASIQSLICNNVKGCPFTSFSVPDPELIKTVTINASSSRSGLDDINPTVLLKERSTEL

| IC50 [1] | IC50 [2] | Structure (SMILES) |
| --- | --- | --- |
| 0.065 to 1.25 µM |  | O=C(O)c1noc(-c2ccc(OCc3ccc4ccccc4n3)cc2)c1-c1ccc(Cl)cc1 |
| 0.85 µM | 0.15 µM | CS(=O)(=O)c1ccc(-c2nc(SCCN(O)C(N)=O)nn2-c2ccc(Br)cc2)cc1 |
| 0.065 to 1.25 µM |  | Cc1cc(Nc2ncc(-c3ccc(F)cc3)o2)cc(C)c1O |
| 0.065 to 1.25 µM |  | CC[C@](O)(c1nnc(NCc2ccc3c(-c4ccc(F)cc4)cc(=O)oc3c2)o1)C(F)(F)F [SETILEUTON] |
